Experimental findings from article PMC9948168, “Vanillin-Based Indolin-2-one Derivative Bearing a Pyridyl Moiety as a Promising Anti-Breast Cancer Agent via Anti-Estrogenic Activity” (ACS Omega, 2023) are described below.

Holding throughout (experiment): NCI-60 one-dose screening
Common to all, as to type: cell-based

One experiment has as its system SK-MEL-28. The conditions noted are these: Homo sapiens, SK-MEL-28, Melanoma, read-out: GI (%).
A further experiment deals with UACC-62. The conditions noted are these: Homo sapiens, UACC-62, Melanoma, read-out: GI (%).
In the next experiment the test system is OVCAR-4. Conditions: Homo sapiens, OVCAR-4, 10 μM; OVCAR-4, Ovarian Cancer; read-out: GI (%).
The next experiment relates to 786-0. Conditions: Homo sapiens, 786-0, Renal Cancer, read-out: GI (%).
The test system of the next experiment is MDA-MB-435. The conditions noted are these: Homo sapiens, MDA-MB-435, Melanoma, read-out: GI (%).
In another experiment the test system is UO-31. Conditions: Homo sapiens, UO-31, Renal Cancer, read-out: GI (%).
Another experiment concerns SF-539. Conditions: Homo sapiens, SF-539, CNS Cancer, read-out: GI (%).
The next experiment concerns SF-268. The conditions noted are these: Homo sapiens, SF-268, CNS Cancer, read-out: GI (%).
A further experiment relates to MOLT-4. The conditions noted are these: Homo sapiens, MOLT-4, Leukemias, read-out: GI (%).
The next experiment deals with HCT-15. Conditions: Homo sapiens, HCT-15, Colon Cancer, read-out: GI (%).
A further experiment concerns NCI-H23. The conditions noted are these: Homo sapiens, NCI-H23, Non-Small Cell Lung Cancer, read-out: GI (%).
In a further experiment the test system is CAKI-1. Conditions: Homo sapiens, CAKI-1, Renal Cancer, read-out: GI (%).
Another experiment has as its system RPMI-8226. Conditions: Homo sapiens, RPMI-8226, Leukemias, read-out: GI (%).
The test system of the next experiment is SK-OV-3. The conditions noted are these: Homo sapiens, SK-OV-3, Ovarian Cancer, read-out: GI (%).
For another experiment, the system named is T-47D. The conditions noted are these: Homo sapiens, T47D, Breast Cancer, read-out: GI (%).
The subject of a further experiment is LOX IMVI. Conditions: Homo sapiens, Melanoma, read-out: GI (%).
For a further experiment, the system named is M14. The conditions noted are these: Homo sapiens, M14, Melanoma, read-out: GI (%).
A further experiment concerns A549/ATCC. The conditions noted are these: Homo sapiens, Non-Small Cell Lung Cancer, read-out: GI (%).
For the next experiment, the system named is NCI/ADR-RES. The conditions noted are these: Homo sapiens, Ovarian Cancer, read-out: GI (%).
A further experiment relates to HT29. The conditions noted are these: Homo sapiens, HT-29, HT29, Colon Cancer, read-out: GI (%).
Another experiment has as its system IGROV1. The conditions noted are these: Homo sapiens, IGROV-1, IGROV1, Ovarian Cancer, read-out: GI (%).
The next experiment has as its system DU-145. The conditions noted are these: Homo sapiens, DU-145, Prostate Cancer, read-out: GI (%).
A further experiment has as its system ACHN. The conditions noted are these: Homo sapiens, Renal Cancer, read-out: GI (%).
Another experiment has as its system RXF 393. Conditions: Homo sapiens, RXF 393, Renal Cancer, read-out: GI (%).

Take `COc1cc(C=C2C(=O)Nc3ccc(Cl)cc32)ccc1OCc1ccccn1` (mixture of isomers) [6j]: the inhibition at 10 µM with SK-MEL-28 was -15.1%; with UACC-62 it was 21.4%; in the experiment on OVCAR-4, 8.34%; with 786-0, -1.2%; in the experiment on MDA-MB-435 it was -3.49%; with UO-31 it was 29.6%. Besides, the inhibition at 10 µM stood at 4.61% in the experiment with SF-539; 1.24% with SF-268; 4.33% in the experiment on MOLT-4; 22.8% in the experiment with HCT-15; 9.09% in the experiment on NCI-H23; 24.4% in the experiment on CAKI-1. Besides, the inhibition at 10 µM with RPMI-8226 was 0.53%; in the experiment with SK-OV-3 it was -4.32%; in the experiment on T-47D, 9.54%; with LOX IMVI, 14.8%; with M14, -0.51%; with A549/ATCC, -2.5%. Moreover, the inhibition at 10 µM with NCI/ADR-RES was 5.4%; with HT29, -8.55%; with IGROV1 it was 13.4%; in the experiment with DU-145 it was -7.75%; with ACHN it was 3.24%; with RXF 393, -0.84%.

`COc1cc(C=C2C(=O)Nc3ccc(Cl)cc32)ccc1OCc1ccc(F)cc1` (mixture of isomers) [6h]: the inhibition at 10 µM is -3.14% in the experiment on SK-MEL-28; 29.8% in the experiment with UACC-62; 74 to 97% in the experiment with OVCAR-4; -0.02% in the experiment on 786-0; 8.73% in the experiment with MDA-MB-435; 25.7% with UO-31. For the same compound, the inhibition at 10 µM with SF-539 amounted to 7.83%; with SF-268 it was 9.84%; in the experiment with MOLT-4, 23.3%; in the experiment with HCT-15 it was 13.6%; in the experiment on NCI-H23 it was 18.8%; in the experiment on CAKI-1, 16.7%. Moreover, the inhibition at 10 µM in the experiment on RPMI-8226 was -0.5%; with SK-OV-3, -9.69%; in the experiment with T-47D, 19.5%; in the experiment on LOX IMVI it was 31.7%; with M14, 3.61%; in the experiment on A549/ATCC it was 15.1%. Besides, the inhibition at 10 µM amounted to 11.7% in the experiment with NCI/ADR-RES; 5.93% with HT29; 22.7% with IGROV1; 10.5% in the experiment with DU-145; 47.3% with ACHN; 6.55% with RXF 393.

As to `COc1cc(C=C2C(=O)Nc3ccc(Cl)cc32)ccc1OCc1ccc(Cl)cc1` (mixture of isomers) [6g], the inhibition at 10 µM is -3.4% with SK-MEL-28; 27% in the experiment with UACC-62; 74 to 97% with OVCAR-4; 4.52% with 786-0; -1.14% with MDA-MB-435; 37.9% in the experiment on UO-31. Also, the inhibition at 10 µM was determined as 10.7% in the experiment on SF-539; 20% with SF-268; 8.95% in the experiment with MOLT-4; 13.9% in the experiment on HCT-15; 20.2% in the experiment on NCI-H23; 24.2% with CAKI-1. Besides, the inhibition at 10 µM with RPMI-8226 was -3.63%; in the experiment on SK-OV-3, 2.96%; with T-47D it was 10%; in the experiment on LOX IMVI it was 46.1%; in the experiment on M14, 2.22%; in the experiment on A549/ATCC, 7.48%. Also, the inhibition at 10 µM with NCI/ADR-RES is 16.1%; with HT29, 6.96%; in the experiment on IGROV1, 37.5%; in the experiment on DU-145 it was 6.57%; in the experiment on ACHN, 71.9%; in the experiment with RXF 393, 9.18%.
